Test results published in patent US20250235498A1, “METHODS OF TREATING OR PREVENTING RESPIRATORY DISEASE WITH HOUTTUYNIA CORDATA THUNB-BASED AEROSOL INHALATION THERAPY” (National Sun Yat-sen University, priority 2024, published 2025).

System: cytokine and chemokine in bronchoalveolar lavage fluid (BALF)
Test: Ovalbumin (OVA)-sensitized phenol-induced COPD animal model, cytokine and chemokine detection in BALF
Assay type: in vivo, Female BALB/c ByJNarl mice
Conditions: OVA-sensitized mice exposed to phenol aqueous aerosols for 3 weeks, aerosol inhalation; FIG. 3
Procedure: Four types of aerosol drugs with varying formulation are separately named as drug A, drug B, drug C and NAC. Drug A, drug B and drug C are mainly composed by Houttuynia Cordata Thunb aqueous extract. Drug A (HCA-A) is pure Houttuynia Cordata Thunb aqueous extract. Drug B (HCA-B) is comprised of Houttuynia Cordata Thunb aqueous extract and 500 μM GSH, while Drug C (HCA-C) is comprised of Houttuynia Cordata Thunb aqueous extract, 500 µM GSH and 500 μM BP. NAC is a mucolytic and antioxidant drug already prevalently used in clinic that are known to modulate several pathways of inflammation. NAC is used here as the positive control to compare the efficacy of aerosol formulation of Houttuynia Cordata Thunb in this study.
The OVA-sensitized mice were firstly placed in a custom-built 40 cm×40 cm×30 cm whole-body acrylic exposure chamber, which was filled and continuously replenished with phenol aqueous aerosols (PAA) for 30 minutes, twice per day for three consecutive weeks. PAA were prepared by atomizing 0.25M aqueous phenol solution via a high flow, liquid-feed atomizer (Model 9306, TSI).
Female BALB/c ByJNarl mice (age: 6-8 weeks, weight: 20-25 g) were purchased from National Laboratory Animal Center (NLAC, NARLabs, Taiwan) and approved by the Institutional Animal Care and Use Committee (IACUC) for the experiment of phenol aerosol exposure and inhalation therapy on OVA-treated mice. […]

CC(=O)N[C@@H](CS)C(=O)O [NAC, N-Acetylcysteine]
Interleukin 1α (IL-1α) level in BALF: did not show apparent reduction
